# Source: patent US20260055126A1, “SMALL MOLECULE COMPOUNDS WITH PHOSPHORYLATED ARYL STRUCTURES AND USE THEREOF” (HANGZHOU PHECDAMED CO., LTD., priority 2022, published 2026)
# “And” between values parts separate entries of the source, which are not always exact repeats. Equal values may be shown once. Read-outs that look alike come from different tables or passages of the source.
# Tests used:
# [1] = Permeability test on Caco2 cells; format: in vitro ADME; conditions: human, Caco-2, AP→BL
# Method: (§1) After resuscitation, the Caco-2 cells are transferred to a conventional culture dish and cultured in a high-glucose DMEM medium (containing 10% FBS) at 37° C. and 5% CO2 in an incubator. When the cells cover 80% to 95% of the bottom of the dish, they are digested with trypsin containing 0.25% EDTA to disperse them into a single cell suspension, and the cell concentration is determined using a cell counter, after that, the concentration of the cell suspension is adjusted to 2 to 2.5×10^5/mL with fresh culture medium and inoculated into a Transwell polycarbonate membrane 12-well plate, the fresh culture medium is replaced every two days in the first two weeks and once a day in the last week, the culture is continued for 19 to 21 days to obtain a fully differentiated single cell layer.
# Caco-2 cells = assay: Permeability test on Caco2 cells; format: in vitro ADME; conditions: for Penetration Type: Caco2 cell model
# Method: as §1
# TEAD family proteins = assay: Thermal shift assay, summary over all TEAD subtypes; format: binding; conditions: summary of Table 1
# Method: (§2) The ability of the compounds to increase the melting point of purified recombinant TEAD1/2/3/4 proteins is tested using a thermal shift assay. The strength of the compound's binding to the protein and the selectivity of the compound's binding to the four TEAD subtypes are evaluated by calculating the melting point shift ΔTm−° C. […] Based on the Δ Tm value, the ability of the compound to bind to the TEAD protein is divided into four levels: ++++, +++, ++, +.
# (§3) Test method of protein melting point curve: 10 μL of the protein melting point curve experimental system (10 μM TEAD protein, 50 μM test compound, SYPRO® orange (55692, sigma)) is prepared in a 384-well fluorescence quantitative PCR plate according to the following system, and reacted at 4° C. in the dark for 20 minutes. On-machine reaction: ABI QuantStudio Dx fluorescence quantitative PCR instrument; program: from 25° C. to 80° C., increasing the temperature at a rate of 0.05° C./s, and reading the fluorescence channel signal of the corresponding wavelength of SYPRO® orange every second.
# [2] = In vitro liver microsome stability, human; format: in vitro ADME
# Method: (§4) Testosterone is selected as the positive reference compound. The specific method is as follows:
# (§5) Preparing 0.1MK3 PO4 (pH 7.4) buffer and 3×NADPH stock solution (6 mM, 5 mg/mL), and preheating in a 37° C. water bath; preparing spiking solution of tested compound and control compound: adding 5 μL compound stock solution (10 mM) to 95 μL acetonitrile; preparing 1.5 μM spiking solution in microsomes (0.75 mg/mL): add 1.5 μL spiking solution and 18.75 μL liver microsome solution (20 mg/mL) to 479.75 μL K3PO4 buffer; taking 30 μL spiking solution in microsomes and adding it to the multiwell plate, and incubating at 37° C. for 5 min; adding 15 μL of NADPH stock solution to each well, starting to react, and timing; adding 150 μL of acetonitrile solution containing IS at 0 min, 5 min, 15 min, 30 min, 45 min and 60 min respectively to terminate the reaction; after 10 min of oscillation, centrifuging the reaction at 6000 rpm for 15 min; taking 80 μL of supernatant from each well for LC/MS detection and calculating Ti/2.
# (§6) Liver microsomes of mice, rats, dogs, and human used in the experiment are purchased from Xenotech.
# [3] = Mouse plasma pharmacokinetic test; format: in vivo, CD-1 mice
# Text: In this example, different compounds are used to perform a mouse pharmacokinetic experiment, and the specific steps are as follows: Animal information: CD-1 mice, male, about 20 g, purchase from Beijing Weitonglihua Experimental Animal Technology Co., Ltd.
# Animal dietary status: Animals are not fasted before administration and allowed to drink water freely.
# Compound preparation method: for intragastric administration (IG)(G1 group), preparing with 0.5% CMC-Na, and for intravenous injection(IV) (G2 group), preparing 5% DMSO+30% PEG400+65% water. […]
# Sampling time points of G1 group: 8 points in total, namely 10 min, 30 min, 1 h, 2 h, 4 h, 6 h, 8 h and 24 h after administration, among them, animals G1M01-G1M03 are sampled at 3 time points, namely 10 min, 1 h and 6 h; animals G1M04-G1M06 are sampled at 3 time points, namely 30 min, 2 h and 8 h; animals G1M07-G1M09 are sampled at 2 time points, namely 4 h and 24 h.
# Sampling time points of G2 group: 9 points in total, namely 5 min, 10 min, 30 min, 1 h, 2 h, 4 h, 6 h, 8 h, 24 h after administration. It is recommended that animals G2M01-G2M03 are sampled at 3 time points, namely 5 min, 1 h, and 6 h; animals G2M04-G2M06 are sampled at 3 time points, namely 10 min, 2 h, and 8 h; animals G2M07-G2M09 are sampled at 3 time points, namely 30 min, 4 h, and 24 h.
# Sample collection: On the day of the experiment, collecting approximately 0.1 mL of whole blood samples at each preset time point and placing in EDTA-K2 anticoagulant tubes.
# Sample processing: Within 30 minutes after whole blood sample collection, centrifuging at 4° C., 12,000 rpm for 5 minutes to separate plasma, collecting the upper plasma sample into a sample tube, and freezing the plasma sample in a −10˜−30° C. refrigerator within 30 minutes and transferring to a −60˜−90° C. refrigerator within 24 hours.
# Sample testing and data processing: LC/MS/MS testing, WinNonlin for fitting and pharmacokinetic parameter calculation.
# [4] = In vitro liver microsome stability, mouse; format: in vitro ADME
# Method: as §4, §5, §6
# [5] = test system: recombinant TEAD1 protein (194-411, Uniprot ID: P28347); assay: Thermal shift assay (protein melting point curve), TEAD1; format: binding; design: key to the marks not given beside the values; conditions: 10 μM TEAD protein, 50 μM test compound
# Method: as §2, §3
# [6] = target: recombinant TEAD4 protein (217-434, Uniprot ID: Q15561) (Homo sapiens (Human), UniProt Q15561); assay: Thermal shift assay (protein melting point curve), TEAD4; format: binding; conditions: 10 μM TEAD protein, 50 μM test compound
# Chain of recombinant TEAD4 protein (217-434, Uniprot ID: Q15561) (Q15561 217-434): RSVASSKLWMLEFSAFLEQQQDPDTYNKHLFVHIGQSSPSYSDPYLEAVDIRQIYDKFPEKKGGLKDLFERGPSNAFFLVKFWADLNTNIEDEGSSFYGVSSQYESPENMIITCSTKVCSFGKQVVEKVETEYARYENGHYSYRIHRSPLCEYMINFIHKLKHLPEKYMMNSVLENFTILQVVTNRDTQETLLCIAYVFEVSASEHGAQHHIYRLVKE
# Method: as §2, §3
# [7] = target: recombinant TEAD4 protein central pocket (Homo sapiens (Human), UniProt Q15561); assay: Competitive thiol binding assay (CPM assay), TEAD4; conditions: 150 nM recombinant TEAD protein, 150 nM CPM
# Chain of recombinant TEAD4 protein central pocket (Q15561 whole entry): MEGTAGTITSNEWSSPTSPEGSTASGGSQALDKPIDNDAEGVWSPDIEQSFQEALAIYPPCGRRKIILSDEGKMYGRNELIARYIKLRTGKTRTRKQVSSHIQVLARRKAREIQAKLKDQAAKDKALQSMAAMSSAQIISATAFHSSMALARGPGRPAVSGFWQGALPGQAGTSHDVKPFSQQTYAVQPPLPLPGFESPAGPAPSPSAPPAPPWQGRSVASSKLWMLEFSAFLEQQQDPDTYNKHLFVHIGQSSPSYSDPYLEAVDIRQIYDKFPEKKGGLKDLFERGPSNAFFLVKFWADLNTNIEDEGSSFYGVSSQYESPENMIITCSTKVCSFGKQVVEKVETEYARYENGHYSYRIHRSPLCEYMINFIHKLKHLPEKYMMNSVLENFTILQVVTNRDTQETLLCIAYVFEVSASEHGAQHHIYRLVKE
# Method: (§7) Diluting the tested compound in gradient to 5 uL with buffer (25 mM HEPES, 150 mM NaCl, pH6.5), then adding 5 μL of the newly prepared 0.45 uM recombinant TEAD protein solution, and incubating at room temperature for 10 minutes. […] After shaking the plate at room temperature for 1 hour, measuring the fluorescence intensity (Ex/Em: 380/470 nm).
# [8] = target: recombinant TEAD2 protein (218-447, Uniprot ID: Q15562) (Homo sapiens (Human), UniProt Q15562); assay: Thermal shift assay (protein melting point curve), TEAD2; format: binding; conditions: 10 μM TEAD protein, 50 μM test compound
# Chain of recombinant TEAD2 protein (218-447, Uniprot ID: Q15562) (Q15562 218-447): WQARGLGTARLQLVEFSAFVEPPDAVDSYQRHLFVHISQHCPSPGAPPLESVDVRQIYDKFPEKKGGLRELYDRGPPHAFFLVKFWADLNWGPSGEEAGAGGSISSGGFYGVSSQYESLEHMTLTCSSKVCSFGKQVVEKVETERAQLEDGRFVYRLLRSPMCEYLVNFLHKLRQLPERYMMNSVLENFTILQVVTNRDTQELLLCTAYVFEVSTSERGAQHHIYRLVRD
# Method: as §2, §3
# [9] = target: recombinant TEAD2 protein central pocket (Homo sapiens (Human), UniProt Q15562); assay: Competitive thiol binding assay (CPM assay), TEAD2; conditions: 150 nM recombinant TEAD protein, 150 nM CPM
# Chain of recombinant TEAD2 protein central pocket (Q15562 whole entry): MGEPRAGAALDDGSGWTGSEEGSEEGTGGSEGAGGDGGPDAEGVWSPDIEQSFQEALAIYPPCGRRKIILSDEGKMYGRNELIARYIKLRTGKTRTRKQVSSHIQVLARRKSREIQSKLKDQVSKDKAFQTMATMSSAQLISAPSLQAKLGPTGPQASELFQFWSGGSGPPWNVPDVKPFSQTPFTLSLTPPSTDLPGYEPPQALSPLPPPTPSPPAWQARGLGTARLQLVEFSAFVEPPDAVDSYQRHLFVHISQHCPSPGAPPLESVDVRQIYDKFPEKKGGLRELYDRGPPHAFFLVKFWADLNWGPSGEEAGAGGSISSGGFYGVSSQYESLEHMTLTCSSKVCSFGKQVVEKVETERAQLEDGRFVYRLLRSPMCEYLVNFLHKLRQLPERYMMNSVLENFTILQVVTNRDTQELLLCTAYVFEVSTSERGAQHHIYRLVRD
# Method: as §7
# [10] = target: recombinant TEAD3 protein (218-435, Uniprot ID: Q99594) (Homo sapiens (Human), UniProt Q99594); assay: Thermal shift assay (protein melting point curve), TEAD3; format: binding; conditions: 10 μM TEAD protein, 50 μM test compound
# Chain of recombinant TEAD3 protein (218-435, Uniprot ID: Q99594) (Q99594 218-435): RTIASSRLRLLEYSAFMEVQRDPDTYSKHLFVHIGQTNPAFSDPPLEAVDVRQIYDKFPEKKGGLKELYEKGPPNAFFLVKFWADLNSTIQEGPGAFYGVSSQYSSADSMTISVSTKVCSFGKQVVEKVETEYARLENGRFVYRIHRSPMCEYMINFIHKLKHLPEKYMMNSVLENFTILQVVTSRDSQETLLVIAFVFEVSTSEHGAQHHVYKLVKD
# Method: as §2, §3
# [11] = target: recombinant TEAD1 protein central pocket (Homo sapiens (Human), UniProt P28347); assay: Competitive thiol binding assay (CPM assay), TEAD1; conditions: 150 nM recombinant TEAD protein, 150 nM CPM
# Chain of recombinant TEAD1 protein central pocket (P28347 whole entry): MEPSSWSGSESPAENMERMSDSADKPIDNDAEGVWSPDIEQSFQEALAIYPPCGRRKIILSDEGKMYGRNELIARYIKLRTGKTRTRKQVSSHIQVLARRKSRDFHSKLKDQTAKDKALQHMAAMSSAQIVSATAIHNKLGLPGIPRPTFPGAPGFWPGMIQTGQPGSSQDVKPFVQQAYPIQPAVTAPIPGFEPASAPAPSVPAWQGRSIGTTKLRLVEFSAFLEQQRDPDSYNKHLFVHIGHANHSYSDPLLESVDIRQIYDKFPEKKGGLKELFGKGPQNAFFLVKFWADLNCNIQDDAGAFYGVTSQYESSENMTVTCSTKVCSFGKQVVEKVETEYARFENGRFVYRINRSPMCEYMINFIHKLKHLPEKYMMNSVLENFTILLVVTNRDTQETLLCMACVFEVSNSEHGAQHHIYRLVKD
# Method: as §7
# [12] = target: recombinant TEAD3 protein central pocket (Homo sapiens (Human), UniProt Q99594); assay: Competitive thiol binding assay (CPM assay), TEAD3; conditions: 150 nM recombinant TEAD protein, 150 nM CPM
# Chain of recombinant TEAD3 protein central pocket (Q99594 whole entry): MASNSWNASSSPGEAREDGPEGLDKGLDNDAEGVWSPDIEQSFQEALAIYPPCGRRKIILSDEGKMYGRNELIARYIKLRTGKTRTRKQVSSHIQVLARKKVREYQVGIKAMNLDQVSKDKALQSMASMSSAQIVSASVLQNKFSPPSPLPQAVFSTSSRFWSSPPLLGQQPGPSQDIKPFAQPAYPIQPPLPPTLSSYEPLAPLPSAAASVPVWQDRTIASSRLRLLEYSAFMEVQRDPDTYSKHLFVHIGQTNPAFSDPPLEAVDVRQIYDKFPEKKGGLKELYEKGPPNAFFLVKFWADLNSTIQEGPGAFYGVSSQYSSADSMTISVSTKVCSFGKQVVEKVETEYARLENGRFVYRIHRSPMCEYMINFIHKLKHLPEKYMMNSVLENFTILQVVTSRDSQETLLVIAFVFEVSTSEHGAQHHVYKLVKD
# Method: as §7
# [13] = single replicate, read-out: Papp
# [14] = CD-1, mouse, plasma, VT103 in mice, IV
compound,measurement,setting,value
O=C1OC2(c3ccc(O)cc3Oc3cc(O)ccc32)c2ccccc21 [fluorescein],Papp at 120 min,"[1]; n = 2, read-out: Papp average value",0.349 ×10⁻⁶ cm/s
same,Papp at 120 min,[1]; [13],0.364 ×10⁻⁶ cm/s
same,Papp,"Caco-2 cells; AP→BL, single replicate",0.334 10^−6 cm/s
same,Receiving chamber concentration Area ratio/OD,"Caco-2 cells; AP→BL, single replicate",4.40E+07 and 4.05E+07
same,Penetration Type,Caco-2 cells,Zero
Cn1cnc(-c2cc(P(C)(C)=O)ccc2Nc2ccc(C(F)(F)F)cc2)c1 [Compound 64],binding ability to each subtype of TEAD family proteins,TEAD family proteins,good binding abilities
same,metabolic stability,[2]; human liver microsome environment,good metabolic stabilities
same,human half-life,[2]; human liver microsomes,> 3.1 h
same,F %,"[3]; CD-1 mice, IG 10 mg/kg vs IV 1 mg/kg",87.1%
same,AUC0-t,"[3]; CD-1 mice, single IG 10 mg/kg",57458 ng·h/mL
same,AUC0-∞,"[3]; CD-1 mice, single IG 10 mg/kg",69572 ng·h/mL
same,Cmax,"[3]; CD-1 mice, single IG 10 mg/kg",4063 ng/mL
same,MRT0-t,"[3]; CD-1 mice, single IG 10 mg/kg",8.16 h
same,MRT0-∞,"[3]; CD-1 mice, single IG 10 mg/kg",13.3 h
same,Tmax,"[3]; CD-1 mice, single IG 10 mg/kg",2.67 h
same,t1/2,"[3]; CD-1 mice, single IG 10 mg/kg",9.43 h
same,AUC0-t,"[3]; CD-1 mice, single IV 1 mg/kg",6596 ng·h/mL
same,AUC0-∞,"[3]; CD-1 mice, single IV 1 mg/kg",7208 ng·h/mL
same,CL,"[3]; CD-1 mice, single IV 1 mg/kg",2.33 mL/min/kg
same,MRT0-t,"[3]; CD-1 mice, single IV 1 mg/kg",5.85 h
same,MRT0-∞,"[3]; CD-1 mice, single IV 1 mg/kg",8.26 h
same,Vss,"[3]; CD-1 mice, single IV 1 mg/kg",1.15 L/kg
same,t1/2,"[3]; CD-1 mice, single IV 1 mg/kg",6.98 h
same,pharmacokinetic properties in mice,[3]; mice,good pharmacokinetic properties
same,metabolic stability,[4]; mouse liver microsome environment,good metabolic stabilities
same,mouse half-life,[4]; mouse liver microsomes,> 3.1 h
same,Δ T m (TEAD1),[5],++++
O=P1(c2ccc(Nc3ccc(C(F)(F)F)cc3)c(-c3ncccn3)c2)CC(CO)C1 (stereo not shown) [Compound 21],binding ability to each subtype of TEAD family proteins,TEAD family proteins,good binding abilities
same,Δ T m (TEAD4),[6],++++
same,IC50,[7],110 nM
same,Δ T m (TEAD2),[8],++++
same,IC50,[9],310 nM
same,Δ T m (TEAD3),[10],+++
same,IC50,[11],200 nM
same,Δ T m (TEAD1),[5],++++
CCP(=O)(CC)c1ccc(Nc2ccc(C(F)(F)F)cc2)c(-c2cn(C)cn2)c1 [Compound 76],binding ability to each subtype of TEAD family proteins,TEAD family proteins,good binding abilities
same,IC50,[12],710 nM
same,Δ T m (TEAD4),[6],++++
same,IC50,[7],220 nM
same,Δ T m (TEAD2),[8],++++
same,IC50,[9],530 nM
same,Δ T m (TEAD3),[10],+++
same,IC50,[11],340 nM
same,Δ T m (TEAD1),[5],++++
COCCc1ccc(OCC(O)CNC(C)C)cc1 (stereo not shown) [Metoprolol],Papp at 120 min,[1]; [13],17.8 ×10⁻⁶ cm/s
same,Papp,"Caco-2 cells; AP→BL, single replicate",18.4 10^−6 cm/s
same,Penetration Type,Caco-2 cells,High
"CNS(=O)(=O)c1ccc(Nc2ccc(C(F)(F)F)cc2)c(-c2cn(C)cn2)c1 [VT103, reference compound]",IC50,[12],2700 nM
same,IC50,[7],2500 nM
same,concentration at 24 h,"[3]; CD-1, mouse, plasma, oral, VT103 in mice, IG 7 mg/kg, converted from ng/ml, read-out: blood concentration after 24 hours",828 nM
same,bioavailability,"[3]; CD-1, mouse, plasma, po, 7 mg/kg, VT103 in mice",75%
same,concentration at 24 h,"[3]; CD-1, mouse, plasma, VT103 in mice, 7 mg/kg oral/IG, read-out: plasma drug concentration after 24 hours C24h",340 ng/mL
same,clearance,[3]; [14],4.7 mL/min/kg
same,half-life,[3]; [14],13.2 h
same,Vd,"[3]; CD-1, mouse, plasma, VT103 in mice, IV, read-out: VSS",4.5 L/kg
same,Cmax,"[3]; CD-1, mouse, plasma, VT103 in mice, per oral (PO) 7 mg/kg, read-out: Cmax",896 ng/mL
same,IC50,[9],880 nM
same,IC50,[11],1200 nM
